Values quoted from earlier work, collected in paper PMC4061760 (Tetrahedron, 2009).

System: Plk1 PBD
Conditions: 5-mer phosphopeptide

Substance: PLHSpT [Peptide 22]
- interaction with the Plk1 PBD: specifically interacts with the Plk1 PBD with high affinity
